Values of other authors as cited in patent publication US20250161199A1, “FORMULATION FOR TREATING AND PREVENTING HAIR LOSS” (DR. BARR - MEDICINE AS ART LTD, priority 2023, published 2025).

Test system: androgenic alopecia
Settings: in vivo

Row | SMILES | time until effect becomes apparent
1 | C[C@]12C=CC(=O)N[C@@H]1CC[C@@H]1[C@@H]2CC[C@]2(C)[C@@H](C(=O)Nc3cc(C(F)(F)F)ccc3C(F)(F)F)CC[C@@H]12 [dutasteride] | only after several months of treatment
2 | CC(C)(C)NC(=O)[C@H]1CC[C@H]2[C@@H]3CC[C@H]4NC(=O)C=C[C@]4(C)[C@H]3CC[C@]12C [finasteride] | only after several months of treatment
